# “Also recorded” adds a separate entry of the source.
# Assays:
# [1] = system: Normal Human Dermal Fibroblasts (NHDFs); assay: Colonization of a standard acellular area (IBIDI chamber gap closure) by fibroblasts; type: cell-based; details: for NHDF Proliferation & Migration (colonization of the acellular area): absence of MMC, 6 h and 24 h; for colonized area, NHDF, positive reference: 10 ng/ml
# Description: (§1) The study consists in an in vitro assay aiming to evaluate the properties of E4 and E2 at 4 concentrations each on keratinocytes and fibroblasts. In this assay, the measurement of the colonization of a standard acellular surface generated from a confluent monolayer of cells using a dedicated culture device (IBIDI chamber) is performed. The assay is performed in absence and in presence of a proliferation inhibitor to focus on cell proliferation and migration or on migration only, respectively.
# Normal Human forskin-derived Dermal Fibroblats (NHDFs, ATCC) cells were grown in phenol-free Dulbecco's Modified Eagle Medium (DMEM, ThermoFisher Scientific) supplemented with 10% of Foetal Bovine Serum (FBS, ThermoFisher Scientific), L-glutamine and antibiotics. The cells were maintained in a humidified incubator at 37° C. with a 5% CO2 atmosphere.
# (§2) Cells were plated in 2-well silicone inserts with a defined cell free gap (IBIDI chambers; IBIDI GmbH, 80209) that was previously inserted on 12-well culture plates. This culture device allows to create a standardized 500 μm±100 μm cell free gap for monitoring cell colonization. 24 h after seeding, when the culture reached high confluency, cells in the insert were treated, or not, with mitomycin C (MMC) at 10 μg/ml during 2 h. After these 2 hours, the insert was removed, and cells were treated with E2 or E4 in presence or not of MMC for additional 2 h. Then, if appropriate, the culture medium was removed and cells were treated with E2 or E4 for 22 h, in absence of MMC.
# (§3) For the assay, keratinocytes were plated in Epilife medium without HKGS and all the treatments were performed in this medium. Fibroblasts were plated in DMEM medium containing only 2,5% of FBS and the treatments were performed in absence of FBS.
# (§4) E2 and E4 were applied at 4 concentrations each (10^−7M, 10^−8M, 10^−9M, 10^−10M). In parallel, cells were treated with a positive control (HKGS 1% for human keratinocytes and PDGF-BB at 10 ng/ml for human fibroblasts).
# (§5) To monitor cell colonization and to evaluate the gap closure rate, pictures of the gap were taken after different times: at time 0 h, corresponding to the beginning of the treatment with E2 or E4 and to the removal of the culture insert, at time 6 h and at time 24 h (corresponding to the end of the treatments with E2 or E4). Pictures were taken with a microscope Zeiss (Axiover 25-10× objective) and with a camera Invenio2EIII (DeltaPix—Lux-Optic). The colonized areas were quantified from the pictures by the use of the WimAsis platform—WimScratch software. For each insert, 3 pictures were taken at each time. As each condition was performed in triplicates, it means a total of 9 pictures per condition and per time point of acquisition
# IL-6 release from NHEKs = assay: PMA/A23187-induced IL-6 release from NHEKs (ELISA, normalized to viability); type: cell-based, human; details: E2, 3 concentrations assessed (not specified); 24 h
# Description: The Normal Human foreskin-derived Epidermal Keratinocytes (NHEKs, Lonza, 00192906), isolated from foreskin of 3 Caucasian donors, were grown in Epilife medium (Fisher Scientific, M-EPI-500-A) supplemented with Human Keratinocyte Growth Supplement (HKGS, Fisher Scientific, S-001-5) and antibiotics (Gentamycin, Fisher Scientific, 15710-049). The cells were maintained in a humidified incubator at 37° C. with a 5% CO2 atmosphere.
# E4 and E2, provided as powder, were dissolved in 100% ethanol at 0.1M. They were then further diluted in ethanol and in culture medium to reach the appropriate concentrations. […] Practically, stock solutions 1000-fold concentrated were prepared in 100% ethanol, aliquoted and stored at −20° C. until cell application.
# In order to induce the release of IL-6, NHEKs were exposed for 24 h with phorbol myristate acetate (PMA) at 10 ng/mL, in combination with calcium ionophore A23187 (Sigma Aldrich, C5722) at 2 μM. The treatments with the test or reference items were performed simultaneously with the inflammatory challenge. […] E4 was applied at 10^−4, 10^−5, 10^−6, 10^−7 and 10^−8 M and E2 at 10^−5, 10^−6, 10^−7, 10^−8 and 10^−9 M EtOH at 0.1% was tested as solvent control. Dexamethasone at 10 μM was used as anti-inflammatory reference. At the end of 24 h treatment, supernatants were harvested and stored at −20° C., and cell viability assay was assessed by MTS (see section 5). The kinetics of the treatments is outlined in FIG. 12. All the treatments were performed in triplicates (n=3).
# The quantification of the release of inflammatory markers was performed using specific ELISA kits, based on standard curves, according to supplier's specifications. The results were then normalized to the corresponding cell viability (obtained by MTS assay).
# The supplier's reference of the kits used for IL-6 quantification is as follows: IL-6, BioTechne, D6050.
# At the end of the treatments and culture media collection, the viability of the cells was evaluated using the MTS (3-(4,5-dimethythiazol-2-yl)-5-(3-carboxy-methoxyphenyl)-2-(4-sulfophenyl)-2H-tetrazolium) assay. The effects of the treatments were compared to the untreated control condition and to the solvent control (EtOH 0.1%). The viability data were used in order to normalize the quantities of released inflammatory mediators.
# NHEKs were treated as described in the methodology section. The quantification of IL-6 by ELISA was performed from the collected supernatants, following the instructions of the kit provider. Only 3 concentrations of the test items (chosen in accordance with the Sponsor following the results of the viability assay) were assessed in the ELISA.
# [2] = system: Normal Human Epidermal Keratinocytes (NHEKs); assay: Colonization of a standard acellular area (IBIDI chamber gap closure) by keratinocytes; type: cell-based; details: for colonization of the cell-free area by NHEK, overall: all four concentrations (10^−7M to 10^−10M), vs ethanol control
# Description: as §1
# The study was performed using cultures of Normal Human foreskin-derived Epidermal Keratinocytes (NHEKs, Lonza). The cells were grown in serum free Epilife medium (ThermoFisher Scientific) supplemented with Human Keratinocyte Growth Supplement (HKGS, ThermoFisher Scientific) and antibiotics. The cells were maintained in a humidified incubator at 37° C. with a 5% CO2 atmosphere.
# as §2, §3, §4, §5
# [3] = system: mouse lymphoma cell line L5178Y TK^+/−; assay: Generation of reactive oxygen species (ROS) in mouse lymphoma cells; type: cell-based; details: up to 100 μM; 3 h exposure; vs vehicle control
# Description: The objective of the study was to investigate the generation of reactive oxygen species (ROS) induced by the test item, estetrol (E4), in a mouse lymphoma cell line L5178Y TK^+/−.
# L5178Y TK^+/− cells in logarithmic phase of growth were plated in black 96 well cell culture plates at 1×10^4 cells in 90 μL of cell culture media. Controls and test item in triplicate were applied to the cells as a 10× concentrate in 10 μL of a 10% ethanol solution in PBS (final concentration of ethanol on plate was 1%). Cells were incubated for 3 hours at 37° C., 5% CO2, and the generation of ROS was evaluated by fluorescence with a ROS reagent: the ROS reagent was freshly prepared by dissolving one ampoule of reagent (50 μg) in 70 μL DMSO and further diluting this with 2.1 mL of pre-warmed PBS. 10 μL of ROS reagent was added to each well and the plate were shaken for 30 seconds in the dark. The plates were incubated approximately at 37° C., 5% CO2 for 1 h 30 min and fluorescence was read on a plate scanner with excitation at 492 nm and emission at 520 nm.
molecule,measurement,setting,value
"C[C@]12CC[C@@H]3c4ccc(O)cc4CC[C@H]3[C@@H]1CC[C@@H]2O [E2, 17β-estradiol, reference compound]",NHDF Proliferation & Migration (colonization of the acellular area),"[1]; 10^−7M, vs ethanol control",increased the colonization of the acellular area; also recorded: significant activity
same,NHDF Proliferation & Migration (colonization of the acellular area),"[1]; 10^−8M, vs ethanol control",increased the colonization of the acellular area; also recorded: significant activity
same,NHDF Proliferation & Migration (colonization of the acellular area),"[1]; 10^−10M, vs ethanol control",increased the colonization of the acellular area; also recorded: significant activity
same,"colonization of the cell-free gap by NHDF, overall","[1]; presence of MMC, all four concentrations (10^−7M to 10^−10M), vs ethanol control",not able to significantly increase the colonization of the cell-free gap
same,PMA/A23187-induced IL-6 release,IL-6 release from NHEKs,unaffected; also recorded: not observed
same,effect on the gap closure by NHEK,"[2]; 10^−7M to 10^−9 M, after 24 h of treatment, significant only for 10^−8M",inhibitor effect on the gap closure
same,"colonization of the cell-free area by NHEK, overall",[2]; absence of MMC,not able to significantly increase the colonization of the cell-free area; also recorded: no significant effect on keratinocyte proliferation or migration
same,"colonization of the cell-free area by NHEK, overall",[2]; presence of MMC,not able to significantly increase the colonization of the cell-free area; also recorded: no significant effect on keratinocyte proliferation or migration
"OO [hydrogen peroxide, reference compound]",levels of ROS (controls),[3],tendency to increase the levels of ROS
"PDGF-BB: positive control at 10 ng/ml for human fibroblasts (protein, UniProt P01127 82-190, looked up) Platelet-derived growth …: SLGSLTIAEPAMIAECKTRTEVFEISRRLIDRTNANFLVWPPCVEVQRCSGCCNNRNVQCRPTQVQLRPVQVRKIEIVRKKPIFKKATVTLEDHLACKCETVAAARPVT","colonized area, NHDF, positive reference",[1]; in absence of MMC,significantly increases the colonized area
same,"colonized area, NHDF, positive reference",[1]; in presence of MMC,significantly increases the colonized area

# From patent US20250325467A1, “COMPOSITIONS FOR PREVENTING OR TREATING SKIN AGING” (ESTETRA SRL, priority 2021, published 2025)
